{
  "source": "patent US5858684A",
  "about": "“Method of screening calcium receptor-active molecules” (priority 1995, dated 1999)",
  "key": {"[1]": {"biological_target": "T1, human parathyroid cells (calcium receptor) (Homo sapiens, UniProt P41180)", "T1 sequence (P41180 20-1078)": "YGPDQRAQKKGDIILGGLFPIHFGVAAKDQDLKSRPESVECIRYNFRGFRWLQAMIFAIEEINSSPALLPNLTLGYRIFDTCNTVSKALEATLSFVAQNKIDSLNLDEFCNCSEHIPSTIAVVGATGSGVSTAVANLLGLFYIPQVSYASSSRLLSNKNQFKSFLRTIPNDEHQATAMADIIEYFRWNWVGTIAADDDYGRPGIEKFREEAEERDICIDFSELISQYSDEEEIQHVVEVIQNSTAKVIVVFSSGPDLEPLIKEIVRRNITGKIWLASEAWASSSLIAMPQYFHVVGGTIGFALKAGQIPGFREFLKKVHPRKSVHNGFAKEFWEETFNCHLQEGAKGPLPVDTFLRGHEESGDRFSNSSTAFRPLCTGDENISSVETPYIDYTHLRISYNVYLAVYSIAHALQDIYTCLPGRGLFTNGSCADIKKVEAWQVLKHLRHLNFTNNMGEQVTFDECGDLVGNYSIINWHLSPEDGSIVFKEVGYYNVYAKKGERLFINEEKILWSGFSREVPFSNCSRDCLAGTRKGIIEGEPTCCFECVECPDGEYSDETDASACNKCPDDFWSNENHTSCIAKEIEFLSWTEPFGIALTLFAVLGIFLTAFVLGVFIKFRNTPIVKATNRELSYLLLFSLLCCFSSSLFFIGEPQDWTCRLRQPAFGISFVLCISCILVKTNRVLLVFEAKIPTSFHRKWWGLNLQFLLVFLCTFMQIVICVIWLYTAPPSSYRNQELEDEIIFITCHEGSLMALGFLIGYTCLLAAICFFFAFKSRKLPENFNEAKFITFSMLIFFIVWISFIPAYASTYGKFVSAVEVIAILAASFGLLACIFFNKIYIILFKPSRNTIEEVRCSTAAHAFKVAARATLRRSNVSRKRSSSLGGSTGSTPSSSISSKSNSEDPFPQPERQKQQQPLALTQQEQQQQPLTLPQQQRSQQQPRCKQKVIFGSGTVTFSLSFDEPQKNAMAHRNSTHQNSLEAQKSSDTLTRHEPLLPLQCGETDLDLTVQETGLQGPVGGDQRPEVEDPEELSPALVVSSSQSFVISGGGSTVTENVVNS", "format": "cell-based", "method": "Human parathyroid glands, were obtained from patients undergoing surgical removal of parathyroid tissue for primary or uremic hyperparathyroidism (uremic HPT), and were treated similarly to bovine tissue.\nThe cells were then pelleted, resuspended in the same buffer, but lacking the ester, and incubated a further 15 minutes at 37° C. The cells were subsequently washed twice with PCB containing 0.5 mM CaCl2 and 0.5% BSA and maintained at room temperature (about 20° C.). Immediately before use, the cells were diluted five-fold with prewarmed 0.5 mM CaCl2 -PCB to obtain a final BSA concentration of 0.1%. The concentration of cells in the cuvette used for fluorescence recording was 1-2×10^6 /ml.\nThe fluorescence of indicator-loaded cells was measured at 37° C. in a spectrofluorimeter (Biomedical Instrumentation Group, University of Pennsylvania, Philadelphia, Pa.) equipped with a thermostated cuvette holder and magnetic stirrer using excitation and emission wavelengths of 340 and 510 nm, respectively. […] Leakage of dye is dependent on temperature and most occurs within the first 2 minutes after warming the cells in the cuvette. Dye leakage increases only very slowly thereafter. To correct the calibration for dye leakage, cells were placed in the cuvette and stirred at 37° C. for 2-3 minutes. The cell suspension was then removed, the cells pelleted, and the supernatant returned to a clean cuvette. […] This estimate was subtracted from the apparent Fmin."}, "[2]": {"tested_on": "osteoclast calcium receptor", "assay": "increase in [Ca2+]i in indo-1-loaded rat osteoclasts", "format": "cell-based"}, "[3]": {"tested_on": "PTH secretion from human parathyroid cells", "assay": "PTH secretion from human parathyroid cells", "format": "cell-based", "details": "human (adenoma) parathyroid cells", "protocol": "PTH secretion was measured by first suspending cells in PCB containing 0.5 mM CaCl2 and 0.1% BSA.\nFor human cells, a commercially available radioimmunoassay kit (INS-PTH; Nichols Institute, Los Angeles, Calif.) which recognizes intact and N-terminal human PTH was used because GW-1 antibody recognizes human PTH poorly."}, "[4]": {"biological_target": "T2, calcium receptor expressed from human parathyroid cell mRNA in Xenopus oocytes (Homo sapiens, UniProt P41180)", "T2 sequence (P41180 20-1078)": "T1 sequence (P41180 20-1078)", "assay": "response of Xenopus oocytes injected with human parathyroid mRNA", "format": "cell-based", "protocol": "Oocytes were injected with poly(A)^+ -enriched mRNA from human parathyroid tissue (hyperplastic glands from a case of secondary HPT).\nGlass capillary tubes (1 mm diameter) were pulled to a fine tip and manually broken to achieve a tip diameter of about 15 μmeters. A droplet of mRNA (1 ng/nl in diethylpyrocarbonate (DEPC)-treated water) was placed onto […]® and drawn into the capillary tube by suction. The capillary tube was then connected to a picospritzer (WPI Instruments) and the volume of the air-pulsed droplets adjusted to deliver 50 ng of mRNA (typically 50 nl). A 35-mm culture dish with a patch of nylon stocking fixed to the bottom was used to secure the oocytes during injection of mRNA into the vegetal pole. The injected oocytes were placed into a 35-mm culture dish containing MBS, 100 μg/ml penicillin and 100 μg/ml streptomycin and incubated at 18° C. for 3 days.\nFollowing incubation, an oocyte was placed into a 100-μl plastic chamber and superfused with MBS at a flow rate of 0.5 ml/min using a peristaltic pump. Test molecules or inorganic polycations were added by rapidly moving the tubing into different buffers. Recording and current-passing electrodes were constructed from thin-wall capillary tubing pulled to a resistance of 1-3 Mohms and filled with 3M KCl. […] Currents were recorded directly onto a strip chart recorder.\nUsing this screen allows one to test for an action directly on the calcium receptor. Oocytes expressing the calcium receptor also responded to several molecules active on intact parathyroid cells when screened as follows. […] This offers rather compelling evidence showing that these molecules act on the calcium receptor or on some other protein intimately associated with its function."}, "[5]": {"tested_on": "PTH secretion from bovine parathyroid cells", "assay": "PTH secretion from bovine parathyroid cells", "format": "cell-based", "details": "bovine parathyroid cells"}, "[6]": {"assay": "serum parathyroid hormone in a human", "format": "in vivo", "details": "single oral doses 20-400 mg", "excerpt": "A range of single oral doses was used to assess safety, tolerance, and changes in primary hyperparathyroidism markers (e.g., plasma concentrations of parathyroid hormone and ionized serum calcium) and of serum calcitonin."}},
  "note": "Like-named read-outs stand apart in the source and are kept apart here.",
  "data": [
    {"molecule": "NC[C@@H]1O[C@H](O[C@H]2[C@@H](O)[C@H](O[C@@H]3[C@@H](O)[C@H](N)C[C@H](N)[C@H]3O[C@H]3O[C@H](CN)[C@@H](O)[C@H](O)[C@H]3N)O[C@@H]2CO)[C@H](N)[C@@H](O)[C@@H]1O", "note": "[Neomycin]", "values": [
      {"measurement": "increase in [Ca2+]i (words)", "setting": "[1]; 20 μM", "value": "evoked a large increase"},
      {"measurement": "increase in [Ca2+]i (words)", "setting": "[1]; human adenomatous tissue, 0.5 mM extracellular Ca2+, neomycin B 10 μM in FIG. 19, listed as Neomycin B", "value": "not only a transient, but additionally a steady-state increase"},
      {"measurement": "increase in [Ca2+]i (words)", "setting": "[1]; human adenomatous tissue, 0.5 mM extracellular Ca2+, neomycin B 10 μM in FIG. 19, listed as neomycin B", "value": "transient and sustained increases"},
      {"measurement": "block of [Ca2+]i response to 25 mM extracellular Ca2+", "setting": "[2]", "value": "did not block the increase"},
      {"measurement": "increase in [Ca2+]i in osteoclasts", "setting": "[2]", "value": "failed to evoke any increase"},
      {"measurement": "increase in [Ca2+]i in osteoclasts, overall", "setting": "[2]", "value": "none of these caused any large increase"},
      {"measurement": "increase in [Ca2+]i in rat osteoclasts", "setting": "[2]", "value": "Neither"},
      {"measurement": "effect on basal [Ca2+]i and on extracellular Ca2+-elicited increase", "setting": "[2]; 5 mM", "value": "without effect on basal"},
      {"measurement": "increase in [Ca2+]i in osteoclasts, overall", "setting": "[2]; listed as neomycin B", "value": "fail to evoke increases"},
      {"measurement": "inhibition of PTH secretion", "setting": "[3]; listed as Neomycin B", "value": "inhibited PTH secretion"},
      {"measurement": "inhibition of PTH secretion", "setting": "[3]; listed as neomycin B", "value": "inhibit PTH secretion"},
      {"measurement": "response of water-injected oocytes", "setting": "[4]; 10 mM, water-injected control oocytes", "value": "failed to cause any change in the current"},
      {"measurement": "concentration effective in oocytes", "setting": "[4]; human parathyroid mRNA", "value": 100, "unit": "µM"},
      {"measurement": "response of oocytes expressing calcium receptor", "setting": "[4]; human parathyroid mRNA, listed as Neomycin B", "value": "evoked oscillatory increases"},
      {"measurement": "response of oocytes expressing calcium receptor", "setting": "[4]; human parathyroid mRNA, listed as neomycin B", "value": "evokes oscillating increases"},
      {"measurement": "inhibition of PTH secretion", "setting": "[5]", "value": "inhibited PTH secretion to the same extent"}
    ]},
    {"molecule": "COc1cccc([C@@H](C)NCCCc2ccccc2Cl)c1", "note": "[NPS R-568, (R)-(+)-N-[3-(2-chlorophenyl)propyl]-amethyl-α-3-methoxybenzylamine]", "values": [
      {"measurement": "plasma PTH in human", "setting": "[6]", "value": "transient dose-dependent decrease in plasma PTH concentration"}
    ]}
  ]
}
